PMC12284850, “In Silico Design of Antimicrobial Peptides against Carbapenem-Resistant Infections with Enhanced Activity by Nanoformulation” (ACS Applied Bio Materials, 2025)
In brackets after ≈: the same amount, converted by molar mass. Where a SMILES comes first, the peptide text is derived from it.

Experiments:
THP-1 = assay type: cell-based; conditions: 72 h
HK-2 cells = assay: Cytotoxicity assay (MTT); assay type: cell-based
Method: (§1) We tested the cytotoxicity of several antibiotic compounds, including peptides and nanoparticles, on the human embryonic kidney cell lines HEK-293, HK-2, and […]. The cells were stored in DMEM medium and incubated at 37 °C with 5% CO2 in a humidifying environment. Using the MTT (methylthiazolyldiphenyl-tetrazolium bromide) test, cell viability was evaluated. Following a 5 × 10^3 cell/mL seeding in 96-well plates, the cells were exposed to 100 μL of samples at varying concentrations (12.5–200 μM) during 72 h at 37 °C. Later, each well is loaded with MTT solution (5 mg/mL in PBS) at a volume of 10 μL. The plates were left in the dark for 4 h. After forming formazan crystals due to the action of mitochondrial reductases in living cells, the crystals were dissolved using a solubilizing solution (pH 4.7, 40% dimethylformamide, 2% glacial acetic acid, and 16% sodium dodecyl sulfate) were shaken at 150 rpm and incubated for an hour at 37 °C. Using graphical plot analysis, the IC50 value–the concentration that results in 50% cell death–was obtained by measuring the absorbance of the dissolved formazan at 570 nm. The average of three independent tests, each carried out in triplicate, was used to display the results.

Gram-positive bacteria = assay: MIC against Gram-positive bacteria; assay type: cell-based; conditions: broth microdilution
Method: (§2) The broth microdilution procedure involves preparing CAMHB broth, a bacterial suspension adjusted to McFarland 0.5 (1.5 × 10^8 CFU/mL) and diluted 200×, and a drug solution at 2× the final target concentration. To achieve a 400× final bacterial dilution, add 100 μL of the drug at different doses to a 96-well plate, then 100 μL of the diluted bacterial culture. Measure the initial absorbance (0 h), incubate at 37 °C for 16–18 h, and measure the final absorbance. With no change in absorbance, the MIC signifies the absence of bacterial growth.

E. coil ATCC25922 = assay type: cell-based, E. coli
Method: as §2

HEK293 = assay type: cell-based, human; conditions: 72 h
Method: as §1

[1] = test system: K. pneumoniae ATCCC700603; assay type: cell-based
Method: as §2

S. aureus ATCC700698 = assay type: cell-based
Method: as §2

[2] = test system: K. pneumoniae ATCC BAA-1705; assay type: cell-based
Method: as §2

A. baumannii ATCC19606 = assay type: cell-based
Method: as §2

S. aureus ATCC29213 = assay type: cell-based
Method: as §2

S. aureus ATCC33592 = assay type: cell-based
Method: as §2

P. aeruginosa ATCC27853 = assay type: cell-based
Method: as §2

[3] = test system: A. baumannii ATCC BAA-747; assay type: cell-based
Method: as §2

E. faecalis ATCC 29212 = assay type: cell-based
Method: as §2

S. aureus ATCC25923 = assay type: cell-based
Method: as §2

CRAB isolate AB-23 = assay type: cell-based, A. baumannii
Text: (§3) The blood samples of patients from Kaohsiung Medical University were used to collect and cryopreserve all of the CRAB clinical isolates. Analytical graded chemicals and reagents were utilized throughout the investigation. The T2–02 peptide (MW 2646.27 Da) was custom-synthesized by Kelowna International Scientific Inc., 1,2-[…]-sn-glycero-3-phosphoethanolamine-N-[methoxy(polyethylene glycol)-2000] (ammonium salt) (DSPE-PEG2000, MW 2693.285 Da) was purchased from Laysan Bio Inc., 1,2-Dioleoyl-sn-glycero-3-phosphocholine (DOPC, MW 786.1 Da) was acquired from BroadPharm, and Poly-L-lysine hydrobromide (30–70 kDa) was sourced from Sigma-Aldrich.
as §2

CRAB isolate AB-11 = assay type: cell-based, A. baumannii
Text: as §3, §2

CRAB isolate AB-09 = assay type: cell-based, A. baumannii
Text: as §3, §2

CRAB isolate AB-17 = assay type: cell-based, A. baumannii
Text: as §3, §2

CRAB isolate AB-01 = assay type: cell-based, A. baumannii
Text: as §3, §2

CRAB isolate AB-19 = assay type: cell-based, A. baumannii
Text: as §3, §2

CRAB isolate AB-18 = assay type: cell-based, A. baumannii
Text: as §3, §2

CRAB isolate AB-16 = assay type: cell-based, A. baumannii
Text: as §3, §2

CRAB isolate AB-13 = assay type: cell-based, A. baumannii
Text: as §3, §2

CRAB isolate AB-15 = assay type: cell-based, A. baumannii
Text: as §3, §2

CRAB isolate AB-03 = assay type: cell-based, A. baumannii
Text: as §3, §2

CRAB isolate AB-04 = assay type: cell-based, A. baumannii
Text: as §3, §2

CRAB isolate AB-08 = assay type: cell-based, A. baumannii
Text: as §3, §2

CRAB isolate AB-06 = assay type: cell-based, A. baumannii
Text: as §3, §2

CRAB isolate AB-12 = assay type: cell-based, A. baumannii
Text: as §3, §2

CRAB isolate AB-14 = assay type: cell-based, A. baumannii
Text: as §3, §2

CRAB isolate AB-24 = assay type: cell-based, A. baumannii
Text: as §3, §2

CRAB isolate AB-05 = assay type: cell-based, A. baumannii
Text: as §3, §2

CRAB isolate AB-07 = assay type: cell-based, A. baumannii
Text: as §3, §2

CRAB isolate AB-10 = assay type: cell-based, A. baumannii
Text: as §3, §2

CRAB isolate AB-20 = assay type: cell-based, A. baumannii
Text: as §3, §2

CRAB isolate AB-22 = assay type: cell-based, A. baumannii
Text: as §3, §2

CRAB isolate AB-21 = assay type: cell-based, A. baumannii
Text: as §3, §2

CRAB isolate AB-02 = assay type: cell-based, A. baumannii
Text: as §3, §2

With CC[C@H](C)[C@H](NC(=O)[C@H](CCCCN)NC(=O)CNC(=O)[C@H](CCCNC(=N)N)NC(=O)[C@H](CCCNC(=N)N)NC(=O)[C@H](CCCCN)NC(=O)[C@H](CC(C)C)NC(=O)[C@H](CC(C)C)NC(=O)[C@H](CCCNC(=N)N)NC(=O)[C@H](CCCCN)NC(=O)[C@H](Cc1c[nH]c2ccccc12)NC(=O)[C@H](CC(C)C)NC(=O)[C@H](C)N)C(=O)N[C@H](C(=O)N[C@@H](CC(C)C)C(=O)N[C@@H](CC(N)=O)C(=O)N[C@@H](CCC(=O)O)C(=O)N[C@@H](CCCNC(=N)N)C(=O)N[C@@H](CC(C)C)C(=O)N[C@@H](CCCNC(=N)N)C(=O)N[C@@H](CC(C)C)C(=O)O)[C@@H](C)CC [T2–02] (H-ALWKRLLKRRGKIILNERLRL-OH) the “IC50 THP-1” value (THP-1) was 866 µg/mL (≈ 327 µM), the “Cytotoxicity HK-2 related to PMB” value (HK-2 cells) was 30.9 and the “IC50 HK-2” value (HK-2 cells; concentration causing 50% cell death, MTT, 72 h, 37 °C, average of three independent tests in triplicate) was 557 µg/mL (≈ 210 µM). The “MIC against Gram-positive bacteria (range)” value (Gram-positive bacteria) was 64 to 256 µg/mL, the MIC (E. coil ATCC25922) was 64 µg/mL (≈ 24.2 µM) and the “IC50 HEK293” value (HEK293) was 1101 µg/mL (≈ 416 µM). It also gave an MIC [1] of 128 µg/mL (≈ 48.4 µM), an MIC (S. aureus ATCC700698) of 256 µg/mL (≈ 96.7 µM) and an MIC [2] of 512 µg/mL (≈ 193 µM). The MIC (A. baumannii ATCC19606) was 8 µg/mL (≈ 3.02 µM), the MIC (S. aureus ATCC29213) was 64 µg/mL (≈ 24.2 µM) and the MIC (S. aureus ATCC33592) was 256 µg/mL (≈ 96.7 µM). The MIC (P. aeruginosa ATCC27853) was 8 µg/mL (≈ 3.02 µM), the MIC [3] was 8 µg/mL (≈ 3.02 µM) and the MIC (E. faecalis ATCC 29212) was 64 µg/mL (≈ 24.2 µM). For the same compound, the MIC (S. aureus ATCC25923) was 256 µg/mL (≈ 96.7 µM), the MIC (CRAB isolate AB-23) was 8 µg/mL (≈ 3.02 µM) and the MIC (CRAB isolate AB-11) was 8 µg/mL (≈ 3.02 µM). It also gave an MIC (CRAB isolate AB-09) of 8 µg/mL (≈ 3.02 µM), an MIC (CRAB isolate AB-17) of 8 µg/mL (≈ 3.02 µM) and an MIC (CRAB isolate AB-01) of 8 µg/mL (≈ 3.02 µM). For the same compound, the MIC (CRAB isolate AB-19) was 8 µg/mL (≈ 3.02 µM), the MIC (CRAB isolate AB-18) was 16 µg/mL (≈ 6.05 µM) and the MIC (CRAB isolate AB-16) was 16 µg/mL (≈ 6.05 µM). The MIC (CRAB isolate AB-13) was 4 µg/mL (≈ 1.51 µM), the MIC (CRAB isolate AB-15) was 8 µg/mL (≈ 3.02 µM) and the MIC (CRAB isolate AB-03) was 4 µg/mL (≈ 1.51 µM). It also gave an MIC (CRAB isolate AB-04) of 8 µg/mL (≈ 3.02 µM), an MIC (CRAB isolate AB-08) of 8 µg/mL (≈ 3.02 µM) and an MIC (CRAB isolate AB-06) of 8 µg/mL (≈ 3.02 µM). For the same compound, the MIC (CRAB isolate AB-12) was 16 µg/mL (≈ 6.05 µM), the MIC (CRAB isolate AB-14) was 8 µg/mL (≈ 3.02 µM) and the MIC (CRAB isolate AB-24) was 8 µg/mL (≈ 3.02 µM). For the same compound, the MIC (CRAB isolate AB-05) was 8 µg/mL (≈ 3.02 µM), the MIC (CRAB isolate AB-07) was 8 µg/mL (≈ 3.02 µM) and the MIC (CRAB isolate AB-10) was 8 µg/mL (≈ 3.02 µM). For the same compound, the MIC (CRAB isolate AB-20) was 8 µg/mL (≈ 3.02 µM), the MIC (CRAB isolate AB-22) was 8 µg/mL (≈ 3.02 µM) and the MIC (CRAB isolate AB-21) was 8 µg/mL (≈ 3.02 µM). For the same compound, the MIC (CRAB isolate AB-02) was 8 µg/mL (≈ 3.02 µM).
